From ChEMBL document CHEMBL5528027, “Target identification, and optimization of dioxygenated amide derivatives as potent antibacterial agents with FabH inhibitory activity” (Eur J Med Chem, 2024)
pIC50: −log10 of the molar value. In brackets after ≈: the same amount, converted by molar mass.

Key:
Streptococcus pneumoniae = test: Antibacterial activity against Streptococcus pneumoniae assessed as reduction in bacterial growth measured after 24 hrs by two-fold serial dilution method; format: functional
Staphylococcus aureus = test: Antibacterial activity against Staphylococcus aureus assessed as reduction in bacterial growth measured after 24 hrs by two-fold serial dilution method; format: functional
Escherichia coli = test: Antibacterial activity against Escherichia coli assessed as reduction in bacterial growth measured after 24 hrs by two-fold serial dilution method; format: functional
Pseudomonas aeruginosa = test: Antibacterial activity against Pseudomonas aeruginosa assessed as reduction in bacterial growth measured after 24 hrs by two-fold serial dilution method; format: functional
Klebsiella pneumoniae = test: Antibacterial activity against Klebsiella pneumoniae assessed as reduction in bacterial growth measured after 24 hrs by two-fold serial dilution method; format: functional
Bacillus subtilis = test: Antibacterial activity against Bacillus subtilis assessed as reduction in bacterial growth measured after 24 hrs by two-fold serial dilution method; format: functional
[1] = Cytotoxicity against mouse NIH3T3 cells incubated for 24 hrs by MTT analysis; format: toxicity, cell-based
[2] = molecular target: T1, Beta-ketoacyl-[acyl-carrier-protein] synthase III (Escherichia coli K-12, UniProt P0A6R0); test: Inhibition of Escherichia coli FabH
T1 sequence (P0A6R0 whole entry): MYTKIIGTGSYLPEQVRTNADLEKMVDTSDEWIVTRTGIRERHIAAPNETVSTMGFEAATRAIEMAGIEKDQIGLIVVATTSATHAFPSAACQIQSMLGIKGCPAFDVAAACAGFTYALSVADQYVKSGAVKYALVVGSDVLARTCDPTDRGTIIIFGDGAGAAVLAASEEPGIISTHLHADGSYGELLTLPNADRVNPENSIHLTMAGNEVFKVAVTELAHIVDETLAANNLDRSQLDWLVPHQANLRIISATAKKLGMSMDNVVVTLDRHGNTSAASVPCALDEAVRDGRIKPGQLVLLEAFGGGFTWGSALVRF

Erythrocyte = test: Hemolytic activity in human erythrocytes assessed as hemolysis by spectrophotometric analysis; format: toxicity, cell-based

O=C(Nc1ccc2ccccc2n1)c1ccc2c(c1)OCCCO2
MIC (Streptococcus pneumoniae): 25 µg/mL (≈ 78 µM)
MIC (Staphylococcus aureus): 25 µg/mL (≈ 78 µM)
MIC (Escherichia coli): 25 µg/mL (≈ 78 µM)
MIC (Pseudomonas aeruginosa): 25 µg/mL (≈ 78 µM)
MIC (Klebsiella pneumoniae): 50 µg/mL (≈ 156 µM)
MIC (Bacillus subtilis): 25 µg/mL (≈ 78 µM)

O=C(Nc1nccc2ccccc12)c1ccc2c(c1)OCCCO2
MIC (Streptococcus pneumoniae): > 100 µg/mL
MIC (Staphylococcus aureus): 50 µg/mL (≈ 156 µM)
MIC (Escherichia coli): 50 µg/mL (≈ 156 µM)
MIC (Pseudomonas aeruginosa): 50 µg/mL (≈ 156 µM)
MIC (Klebsiella pneumoniae): 25 µg/mL (≈ 78 µM)
MIC (Bacillus subtilis): > 100 µg/mL

C#CCCC1(CCNC(=O)c2ccc3c(c2)OCCCO3)N=N1
MIC (Staphylococcus aureus): 6.25 µg/mL (≈ 19.9 µM)
MIC (Escherichia coli): 6.25 µg/mL (≈ 19.9 µM)
MIC (Pseudomonas aeruginosa): 6.25 µg/mL (≈ 19.9 µM)
MIC (Bacillus subtilis): 6.25 µg/mL (≈ 19.9 µM)

COc1ccc2[nH]cc(CNC(=O)c3ccc4c(c3)OCCCO4)c2c1
MIC (Streptococcus pneumoniae): > 100 µg/mL
MIC (Staphylococcus aureus): 50 µg/mL (≈ 142 µM)
MIC (Escherichia coli): 25 µg/mL (≈ 70.9 µM)
MIC (Pseudomonas aeruginosa): 50 µg/mL (≈ 142 µM)
MIC (Klebsiella pneumoniae): 50 µg/mL (≈ 142 µM)
MIC (Bacillus subtilis): 25 µg/mL (≈ 70.9 µM)

CC(=O)N1CCC(NC(=O)c2ccc3c(c2)OCCCO3)CC1
MIC (Streptococcus pneumoniae): 25 µg/mL (≈ 78.5 µM)
MIC (Staphylococcus aureus): 3.13 µg/mL (≈ 9.83 µM)
IC50 at 24 h [1]: 132 µM
pIC50 [2]: 4.76
MIC (Escherichia coli): 12.5 µg/mL (≈ 39.3 µM)
MIC (Pseudomonas aeruginosa): 3.13 µg/mL (≈ 9.83 µM)
MIC (Klebsiella pneumoniae): 3.13 µg/mL (≈ 9.83 µM)
MIC (Bacillus subtilis): 25 µg/mL (≈ 78.5 µM)
HC30 (Erythrocyte): > 10 µg/mL

CC1(CCNC(=O)c2ccc3c(c2)OCCCO3)N=N1
MIC (Staphylococcus aureus): 6.25 µg/mL (≈ 22.7 µM)
MIC (Escherichia coli): 6.25 µg/mL (≈ 22.7 µM)
MIC (Pseudomonas aeruginosa): 6.25 µg/mL (≈ 22.7 µM)
MIC (Bacillus subtilis): 12.5 µg/mL (≈ 45.4 µM)

COC(=O)c1cccc(-c2ccc(NC(=O)c3ccc4c(c3)OCCCO4)cc2)c1
MIC (Streptococcus pneumoniae): > 100 µg/mL
MIC (Staphylococcus aureus): 50 µg/mL (≈ 124 µM)
IC50 at 24 h [1]: 161 µM
pIC50 [2]: 4.71
MIC (Escherichia coli): 12.5 µg/mL (≈ 31 µM)
MIC (Pseudomonas aeruginosa): 50 µg/mL (≈ 124 µM)
MIC (Klebsiella pneumoniae): 50 µg/mL (≈ 124 µM)
MIC (Bacillus subtilis): 50 µg/mL (≈ 124 µM)
HC30 (Erythrocyte): > 10 µg/mL

Cc1ccc2cccc(NC(=O)c3ccc4c(c3)OCCCO4)c2n1
MIC (Streptococcus pneumoniae): 25 µg/mL (≈ 74.8 µM)
MIC (Staphylococcus aureus): 12.5 µg/mL (≈ 37.4 µM)
MIC (Escherichia coli): 12.5 µg/mL (≈ 37.4 µM)
MIC (Pseudomonas aeruginosa): 12.5 µg/mL (≈ 37.4 µM)
MIC (Klebsiella pneumoniae): 50 µg/mL (≈ 150 µM)
MIC (Bacillus subtilis): 25 µg/mL (≈ 74.8 µM)

O=C(Nc1cccc2cccnc12)c1ccc2c(c1)OCCCO2
MIC (Streptococcus pneumoniae): 25 µg/mL (≈ 78 µM)
MIC (Staphylococcus aureus): 25 µg/mL (≈ 78 µM)
MIC (Escherichia coli): 12.5 µg/mL (≈ 39 µM)
MIC (Pseudomonas aeruginosa): 25 µg/mL (≈ 78 µM)
MIC (Klebsiella pneumoniae): 50 µg/mL (≈ 156 µM)
MIC (Bacillus subtilis): 12.5 µg/mL (≈ 39 µM)

O=C(Nc1cncc(Cl)n1)c1ccc2c(c1)OCCCO2
MIC (Streptococcus pneumoniae): 50 µg/mL (≈ 164 µM)
MIC (Staphylococcus aureus): 25 µg/mL (≈ 81.8 µM)
MIC (Escherichia coli): 25 µg/mL (≈ 81.8 µM)
MIC (Pseudomonas aeruginosa): 25 µg/mL (≈ 81.8 µM)
MIC (Klebsiella pneumoniae): 25 µg/mL (≈ 81.8 µM)
MIC (Bacillus subtilis): 25 µg/mL (≈ 81.8 µM)

O=C(Nc1ccncn1)c1ccc2c(c1)OCCCO2
MIC (Streptococcus pneumoniae): 50 µg/mL (≈ 184 µM)
MIC (Staphylococcus aureus): 50 µg/mL (≈ 184 µM)
MIC (Escherichia coli): 50 µg/mL (≈ 184 µM)
MIC (Pseudomonas aeruginosa): 50 µg/mL (≈ 184 µM)
MIC (Klebsiella pneumoniae): > 100 µg/mL
MIC (Bacillus subtilis): > 100 µg/mL

CCOC(=O)c1cccnc1NC(=O)c1ccc2c(c1)OCCCO2
MIC (Streptococcus pneumoniae): 25 µg/mL (≈ 73 µM)
MIC (Staphylococcus aureus): 25 µg/mL (≈ 73 µM)
IC50 at 24 h [1]: 147 µM
pIC50 [2]: 4.57
MIC (Escherichia coli): 6.25 µg/mL (≈ 18.3 µM)
MIC (Pseudomonas aeruginosa): 12.5 µg/mL (≈ 36.5 µM)
MIC (Klebsiella pneumoniae): 25 µg/mL (≈ 73 µM)
MIC (Bacillus subtilis): 25 µg/mL (≈ 73 µM)
HC30 (Erythrocyte): > 10 µg/mL

CCN1CCN(C(=O)c2ccc3c(c2)OCCCO3)CC1
MIC (Streptococcus pneumoniae): 50 µg/mL (≈ 172 µM)
MIC (Staphylococcus aureus): 25 µg/mL (≈ 86.1 µM)
MIC (Escherichia coli): 25 µg/mL (≈ 86.1 µM)
MIC (Pseudomonas aeruginosa): 50 µg/mL (≈ 172 µM)
MIC (Klebsiella pneumoniae): 50 µg/mL (≈ 172 µM)
MIC (Bacillus subtilis): > 100 µg/mL

O=C(Nc1ccc2cc[nH]c2c1)c1ccc2c(c1)OCCCO2
MIC (Streptococcus pneumoniae): 12.5 µg/mL (≈ 40.5 µM)
MIC (Staphylococcus aureus): 6.25 µg/mL (≈ 20.3 µM)
IC50 at 24 h [1]: 198 µM
pIC50 [2]: 4.88
MIC (Escherichia coli): 3.13 µg/mL (≈ 10.2 µM)
MIC (Pseudomonas aeruginosa): 6.25 µg/mL (≈ 20.3 µM)
MIC (Klebsiella pneumoniae): 3.13 µg/mL (≈ 10.2 µM)
MIC (Bacillus subtilis): 12.5 µg/mL (≈ 40.5 µM)
HC30 (Erythrocyte): > 10 µg/mL

CCOC(=O)c1c(NC(=O)c2ccc3c(c2)OCCCO3)sc2c1CCCC2
MIC (Streptococcus pneumoniae): 50 µg/mL (≈ 125 µM)
MIC (Staphylococcus aureus): > 100 µg/mL
MIC (Escherichia coli): > 100 µg/mL
MIC (Pseudomonas aeruginosa): 50 µg/mL (≈ 125 µM)
MIC (Klebsiella pneumoniae): 50 µg/mL (≈ 125 µM)
MIC (Bacillus subtilis): 50 µg/mL (≈ 125 µM)

O=C(c1ccc2c(c1)OCCCO2)N1CCOCC1
MIC (Streptococcus pneumoniae): 50 µg/mL (≈ 190 µM)
MIC (Staphylococcus aureus): 12.5 µg/mL (≈ 47.5 µM)
MIC (Escherichia coli): 25 µg/mL (≈ 95 µM)
MIC (Pseudomonas aeruginosa): 25 µg/mL (≈ 95 µM)
MIC (Klebsiella pneumoniae): 12.5 µg/mL (≈ 47.5 µM)
MIC (Bacillus subtilis): 25 µg/mL (≈ 95 µM)

CC1(CCCNC(=O)c2ccc3c(c2)OCCCO3)N=N1
MIC (Staphylococcus aureus): 25 µg/mL (≈ 86.4 µM)
MIC (Escherichia coli): 12.5 µg/mL (≈ 43.2 µM)
MIC (Pseudomonas aeruginosa): 25 µg/mL (≈ 86.4 µM)
MIC (Bacillus subtilis): 25 µg/mL (≈ 86.4 µM)

O=C(c1ccc2c(c1)OCCCO2)N1CCCC1
MIC (Streptococcus pneumoniae): > 100 µg/mL
MIC (Staphylococcus aureus): > 100 µg/mL
MIC (Escherichia coli): > 100 µg/mL
MIC (Pseudomonas aeruginosa): 50 µg/mL (≈ 202 µM)
MIC (Klebsiella pneumoniae): > 100 µg/mL
MIC (Bacillus subtilis): > 100 µg/mL
